Experimental data from the supplement of paper PMC10307832.

Legend:
Test in all cases: relative viability (nuclei count vs DMSO), 5 days (fraction); higher = more cells survive
Ispinesib + Linsitinib = compound: Cc1ccc(C(=O)N(CCCN)[C@@H](c2nc3cc(Cl)ccc3c(=O)n2Cc2ccccc2)C(C)C)cc1 [Ispinesib] + C[C@]1(O)C[C@@H](c2nc(-c3ccc4ccc(-c5ccccc5)nc4c3)c3c(N)nccn32)C1 [Linsitinib] (partner 1 µM)
Outline: (§1)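 One day after seeding in 1536-well plates, lung cancer cell lines were dosed by pin tool. Dosing was either single-drug or a fixed anchor-drug dose plus five library-drug doses (not always all listed) in √10 steps. After 5 days, nuclei were stained in one fix-and-stain step and counted on 4× images, and relative viability is the nuclei count of treated wells over that of vehicle wells, given as the median of duplicate plates.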

Linsitinib + Foretinib = compound: C[C@]1(O)C[C@@H](c2nc(-c3ccc4ccc(-c5ccccc5)nc4c3)c3c(N)nccn32)C1 [Linsitinib] + COc1cc2c(Oc3ccc(NC(=O)C4(C(=O)Nc5ccc(F)cc5)CC4)cc3F)ccnc2cc1OCCCN1CCOCC1 [Foretinib] (partner 0.25 µM)
Outline: as §1

Linsitinib + Navitoclax = compound: C[C@]1(O)C[C@@H](c2nc(-c3ccc4ccc(-c5ccccc5)nc4c3)c3c(N)nccn32)C1 [Linsitinib] + CC1(C)CCC(c2ccc(Cl)cc2)=C(CN2CCN(c3ccc(C(=O)NS(=O)(=O)c4ccc(N[C@H](CCN5CCOCC5)CSc5ccccc5)c(S(=O)(=O)C(F)(F)F)c4)cc3)CC2)C1 [Navitoclax] (partner 0.5 µM)
Outline: as §1

Ispinesib + Decitabine = compound: Cc1ccc(C(=O)N(CCCN)[C@@H](c2nc3cc(Cl)ccc3c(=O)n2Cc2ccccc2)C(C)C)cc1 [Ispinesib] + Nc1ncn([C@H]2C[C@H](O)[C@@H](CO)O2)c(=O)n1 [Decitabine] (partner 2 µM)
Outline: as §1

## EMC-BAC-2
Ispinesib + Linsitinib; first compound 0.001 µM
  relative viability: 0.831
Ispinesib + Linsitinib; first compound 0.003162 µM
  relative viability: 0.847
Ispinesib + Linsitinib; first compound 0.01 µM
  relative viability: 0.858
Ispinesib + Linsitinib; first compound 0.03162 µM
  relative viability: 0.614
Ispinesib + Linsitinib; first compound 0.1 µM
  relative viability: 0.487
Linsitinib + Foretinib; first compound 0.01 µM
  relative viability: 0.95
Linsitinib + Foretinib; first compound 0.03162 µM
  relative viability: 0.979
Linsitinib + Foretinib; first compound 0.1 µM
  relative viability: 1.1
Linsitinib + Foretinib; first compound 0.3162 µM
  relative viability: 0.907
Linsitinib + Foretinib; first compound 1 µM
  relative viability: 0.819
Linsitinib + Navitoclax; first compound 0.01 µM
  relative viability: 1.16
Linsitinib + Navitoclax; first compound 0.03162 µM
  relative viability: 1.17
Linsitinib + Navitoclax; first compound 0.1 µM
  relative viability: 1.14
Linsitinib + Navitoclax; first compound 0.3162 µM
  relative viability: 0.996
Linsitinib + Navitoclax; first compound 1 µM
  relative viability: 1.16
Ispinesib + Decitabine; first compound 0.001 µM
  relative viability: 0.933
Ispinesib + Decitabine; first compound 0.003162 µM
  relative viability: 1.13
Ispinesib + Decitabine; first compound 0.01 µM
  relative viability: 1.04
Ispinesib + Decitabine; first compound 0.03162 µM
  relative viability: 0.775
Ispinesib + Decitabine; first compound 0.1 µM
  relative viability: 0.47

## NCI-H2087
Ispinesib + Linsitinib; first compound 0.001 µM
  relative viability: 1.02
Ispinesib + Linsitinib; first compound 0.003162 µM
  relative viability: 0.979
Ispinesib + Linsitinib; first compound 0.01 µM
  relative viability: 1.02
Ispinesib + Linsitinib; first compound 0.03162 µM
  relative viability: 0.459
Ispinesib + Linsitinib; first compound 0.1 µM
  relative viability: 0.167
Linsitinib + Foretinib; first compound 0.01 µM
  relative viability: 1
Linsitinib + Foretinib; first compound 0.03162 µM
  relative viability: 0.995
Linsitinib + Foretinib; first compound 0.1 µM
  relative viability: 1.01
Linsitinib + Foretinib; first compound 0.3162 µM
  relative viability: 0.813
Linsitinib + Foretinib; first compound 1 µM
  relative viability: 0.967
Linsitinib + Navitoclax; first compound 0.01 µM
  relative viability: 1.1
Linsitinib + Navitoclax; first compound 0.03162 µM
  relative viability: 1.05
Linsitinib + Navitoclax; first compound 0.1 µM
  relative viability: 0.861
Linsitinib + Navitoclax; first compound 0.3162 µM
  relative viability: 0.843
Linsitinib + Navitoclax; first compound 1 µM
  relative viability: 0.821
Ispinesib + Decitabine; first compound 0.001 µM
  relative viability: 0.346
Ispinesib + Decitabine; first compound 0.003162 µM
  relative viability: 0.297
Ispinesib + Decitabine; first compound 0.01 µM
  relative viability: 0.241
Ispinesib + Decitabine; first compound 0.03162 µM
  relative viability: 0.194
Ispinesib + Decitabine; first compound 0.1 µM
  relative viability: 0.122

## NCI-H441
Ispinesib + Linsitinib; first compound 0.001 µM
  relative viability: 0.465
Ispinesib + Linsitinib; first compound 0.003162 µM
  relative viability: 0.771
Ispinesib + Linsitinib; first compound 0.01 µM
  relative viability: 0.346
Ispinesib + Linsitinib; first compound 0.03162 µM
  relative viability: 0.163
Ispinesib + Linsitinib; first compound 0.1 µM
  relative viability: 0.173
Linsitinib + Foretinib; first compound 0.01 µM
  relative viability: 0.928
Linsitinib + Foretinib; first compound 0.03162 µM
  relative viability: 1.18
Linsitinib + Foretinib; first compound 0.1 µM
  relative viability: 0.834
Linsitinib + Foretinib; first compound 0.3162 µM
  relative viability: 0.835
Linsitinib + Foretinib; first compound 1 µM
  relative viability: 0.492
Linsitinib + Navitoclax; first compound 0.01 µM
  relative viability: 0.803
Linsitinib + Navitoclax; first compound 0.03162 µM
  relative viability: 0.795
Linsitinib + Navitoclax; first compound 0.1 µM
  relative viability: 1.12
Linsitinib + Navitoclax; first compound 0.3162 µM
  relative viability: 0.397
Linsitinib + Navitoclax; first compound 1 µM
  relative viability: 0.439
Ispinesib + Decitabine; first compound 0.001 µM
  relative viability: 0.216
Ispinesib + Decitabine; first compound 0.003162 µM
  relative viability: 0.139
Ispinesib + Decitabine; first compound 0.01 µM
  relative viability: 0.192
Ispinesib + Decitabine; first compound 0.03162 µM
  relative viability: 0.18
Ispinesib + Decitabine; first compound 0.1 µM
  relative viability: 0.193

## LXF-289
Ispinesib + Linsitinib; first compound 0.001 µM
  relative viability: 0.914
Ispinesib + Linsitinib; first compound 0.003162 µM
  relative viability: 0.987
Ispinesib + Linsitinib; first compound 0.01 µM
  relative viability: 1.09
Ispinesib + Linsitinib; first compound 0.03162 µM
  relative viability: 0.936
Ispinesib + Linsitinib; first compound 0.1 µM
  relative viability: 0.542
Linsitinib + Foretinib; first compound 0.01 µM
  relative viability: 0.968
Linsitinib + Foretinib; first compound 0.03162 µM
  relative viability: 0.944
Linsitinib + Foretinib; first compound 0.1 µM
  relative viability: 0.984
Linsitinib + Foretinib; first compound 1 µM
  relative viability: 0.994
Linsitinib + Navitoclax; first compound 0.01 µM
  relative viability: 0.951
Linsitinib + Navitoclax; first compound 0.03162 µM
  relative viability: 0.932
Linsitinib + Navitoclax; first compound 0.1 µM
  relative viability: 0.929
Linsitinib + Navitoclax; first compound 0.3162 µM
  relative viability: 0.783
Linsitinib + Navitoclax; first compound 1 µM
  relative viability: 0.939
Ispinesib + Decitabine; first compound 0.001 µM
  relative viability: 0.359
Ispinesib + Decitabine; first compound 0.003162 µM
  relative viability: 0.388
Ispinesib + Decitabine; first compound 0.01 µM
  relative viability: 0.387
Ispinesib + Decitabine; first compound 0.03162 µM
  relative viability: 0.404
Ispinesib + Decitabine; first compound 0.1 µM
  relative viability: 0.349

## PC-3 [JPC-3]
Ispinesib + Linsitinib; first compound 0.001 µM
  relative viability: 0.937
Ispinesib + Linsitinib; first compound 0.003162 µM
  relative viability: 0.917
Ispinesib + Linsitinib; first compound 0.01 µM
  relative viability: 0.949
Ispinesib + Linsitinib; first compound 0.03162 µM
  relative viability: 0.989
Ispinesib + Linsitinib; first compound 0.1 µM
  relative viability: 1.03
Linsitinib + Foretinib; first compound 0.01 µM
  relative viability: 1.04
Linsitinib + Foretinib; first compound 0.03162 µM
  relative viability: 1.03
Linsitinib + Foretinib; first compound 0.1 µM
  relative viability: 1.04
Linsitinib + Foretinib; first compound 0.3162 µM
  relative viability: 0.951
Linsitinib + Foretinib; first compound 1 µM
  relative viability: 0.922
Linsitinib + Navitoclax; first compound 0.01 µM
  relative viability: 0.842
Linsitinib + Navitoclax; first compound 0.03162 µM
  relative viability: 0.798
Linsitinib + Navitoclax; first compound 0.1 µM
  relative viability: 0.785
Linsitinib + Navitoclax; first compound 0.3162 µM
  relative viability: 0.731
Linsitinib + Navitoclax; first compound 1 µM
  relative viability: 0.669
Ispinesib + Decitabine; first compound 0.001 µM
  relative viability: 0.838
Ispinesib + Decitabine; first compound 0.003162 µM
  relative viability: 0.867
Ispinesib + Decitabine; first compound 0.01 µM
  relative viability: 0.781
Ispinesib + Decitabine; first compound 0.03162 µM
  relative viability: 0.796
Ispinesib + Decitabine; first compound 0.1 µM
  relative viability: 0.465

## HCC-366
Ispinesib + Linsitinib; first compound 0.001 µM
  relative viability: 1.13
Ispinesib + Linsitinib; first compound 0.003162 µM
  relative viability: 0.595
Ispinesib + Linsitinib; first compound 0.01 µM
  relative viability: 1.04
Ispinesib + Linsitinib; first compound 0.03162 µM
  relative viability: 0.719
Ispinesib + Linsitinib; first compound 0.1 µM
  relative viability: 0.167
Linsitinib + Foretinib; first compound 0.01 µM
  relative viability: 0.95
Linsitinib + Foretinib; first compound 0.03162 µM
  relative viability: 0.996
Linsitinib + Foretinib; first compound 0.1 µM
  relative viability: 0.907
Linsitinib + Foretinib; first compound 0.3162 µM
  relative viability: 0.932
Linsitinib + Foretinib; first compound 1 µM
  relative viability: 0.956
Linsitinib + Navitoclax; first compound 0.01 µM
  relative viability: 1.04
Linsitinib + Navitoclax; first compound 0.03162 µM
  relative viability: 0.782
Linsitinib + Navitoclax; first compound 0.1 µM
  relative viability: 1.12
Linsitinib + Navitoclax; first compound 0.3162 µM
  relative viability: 0.921
Linsitinib + Navitoclax; first compound 1 µM
  relative viability: 0.996
Ispinesib + Decitabine; first compound 0.001 µM
  relative viability: 0.377
Ispinesib + Decitabine; first compound 0.003162 µM
  relative viability: 0.426
Ispinesib + Decitabine; first compound 0.01 µM
  relative viability: 0.396
Ispinesib + Decitabine; first compound 0.03162 µM
  relative viability: 0.399
Ispinesib + Decitabine; first compound 0.1 µM
  relative viability: 0.0716

## NCI-H1651
Ispinesib + Linsitinib; first compound 0.001 µM
  relative viability: 1.16
Ispinesib + Linsitinib; first compound 0.003162 µM
  relative viability: 0.921
Ispinesib + Linsitinib; first compound 0.01 µM
  relative viability: 1.18
Ispinesib + Linsitinib; first compound 0.03162 µM
  relative viability: 1.05
Ispinesib + Linsitinib; first compound 0.1 µM
  relative viability: 0.203
Linsitinib + Foretinib; first compound 0.01 µM
  relative viability: 0.7
Linsitinib + Foretinib; first compound 0.03162 µM
  relative viability: 0.81
Linsitinib + Foretinib; first compound 0.1 µM
  relative viability: 0.753
Linsitinib + Foretinib; first compound 0.3162 µM
  relative viability: 0.683
Linsitinib + Foretinib; first compound 1 µM
  relative viability: 0.734
Linsitinib + Navitoclax; first compound 0.01 µM
  relative viability: 0.978
Linsitinib + Navitoclax; first compound 0.03162 µM
  relative viability: 1.1
Linsitinib + Navitoclax; first compound 0.1 µM
  relative viability: 0.925
Linsitinib + Navitoclax; first compound 0.3162 µM
  relative viability: 0.958
Linsitinib + Navitoclax; first compound 1 µM
  relative viability: 0.981
Ispinesib + Decitabine; first compound 0.001 µM
  relative viability: 0.582
Ispinesib + Decitabine; first compound 0.003162 µM
  relative viability: 0.688
Ispinesib + Decitabine; first compound 0.01 µM
  relative viability: 0.67
Ispinesib + Decitabine; first compound 0.03162 µM
  relative viability: 0.559
Ispinesib + Decitabine; first compound 0.1 µM
  relative viability: 0.508

## NCI-H1355
Ispinesib + Linsitinib; first compound 0.001 µM
  relative viability: 0.82
Ispinesib + Linsitinib; first compound 0.003162 µM
  relative viability: 0.794
Ispinesib + Linsitinib; first compound 0.01 µM
  relative viability: 0.893
Ispinesib + Linsitinib; first compound 0.03162 µM
  relative viability: 0.795
Ispinesib + Linsitinib; first compound 0.1 µM
  relative viability: 0.561
Linsitinib + Foretinib; first compound 0.01 µM
  relative viability: 0.973
Linsitinib + Foretinib; first compound 0.03162 µM
  relative viability: 0.964
Linsitinib + Foretinib; first compound 0.1 µM
  relative viability: 0.873
Linsitinib + Foretinib; first compound 0.3162 µM
  relative viability: 0.811
Linsitinib + Foretinib; first compound 1 µM
  relative viability: 0.759
Linsitinib + Navitoclax; first compound 0.01 µM
  relative viability: 0.888
Linsitinib + Navitoclax; first compound 0.03162 µM
  relative viability: 0.868
Linsitinib + Navitoclax; first compound 0.1 µM
  relative viability: 0.881
Linsitinib + Navitoclax; first compound 0.3162 µM
  relative viability: 0.729
Linsitinib + Navitoclax; first compound 1 µM
  relative viability: 0.659
Ispinesib + Decitabine; first compound 0.001 µM
  relative viability: 0.364
Ispinesib + Decitabine; first compound 0.003162 µM
  relative viability: 0.364
Ispinesib + Decitabine; first compound 0.01 µM
  relative viability: 0.405
Ispinesib + Decitabine; first compound 0.03162 µM
  relative viability: 0.33
Ispinesib + Decitabine; first compound 0.1 µM
  relative viability: 0.307
